Experimental findings from US20220204498A1, “PYRIDO-PYRIMIDINYL COMPOUNDS AND METHODS OF USE” (Genentech, Inc., priority 2019, published 2022) are described below.

Structures can show the parent of a compound that is named as a salt.

In the assay the target is T1, IRE1α (Homo sapiens, UniProt O75460, D688N).
T1 construct: containing the kinase and RNase domains (KR, AA G547-1L977, D688N); made in house; host or cells: Sf9 insect cells
The assay can be described thus: IRE1α TR-FRET competition binding assay (IRE1α HTRF). As to conditions: His-tagged IRE1α kinase dead construct (KR, D688N) 0.25 nM; Alexa fluor 647-labeled ATP competitive probe 2 nM; one hour at room temperature; read-out: IRE1α (alpha) HTRF (IC50). As for the experimental part: Example 59. IRE1α TR-FRET Competition Binding Assay
To determine the affinity of compound binding to the kinase domain of IRE1α, a time-resolved fluorescence resonance energy transfer (TR-FRET) competition assay was used.
A His-tagged IRE1α kinase dead construct containing the kinase and RNase domains (KR, AA G547-1L977, D688N) was expressed in Sf9 insect cells. The purified protein (final concentration 0.25 nM) was pre-incubated with anti-His Europium labeled antibody (Life Technologies PV5596, final concentration 2 nM) for one hour at 4° C. in TR-FRET Assay Buffer (50 mM HEPES, pH 7.5, 10 mM MgCl2, 0.083 mM Brij 35, 1 mM DTT, and 0.1% bovine gamma globulin) prior to addition to test compounds. An Alexa fluor 647-labeled probe based on an ATP competitive inhibitor was added to a final concentration of 2 nM. Reactions were carried out for one hour at room temperature in a final volume of 20 μL in 384 well white ProxiPlates (Perkin Elmer 6008289). Binding of the probe to the IRE1α protein was detected in an Envision instrument (PerkinElmer) equipped with a TRF laser option and a LANCE/Delfia Dual/Bias D400/D630 mirror (Ex 347 nm, 1st Em 665 nm, 2nd Em 615 nm).
For orientation: TR-FRET usually uses a lanthanide donor and a delayed reading to cut background.

T1 sequence (O75460 547-977 D688N): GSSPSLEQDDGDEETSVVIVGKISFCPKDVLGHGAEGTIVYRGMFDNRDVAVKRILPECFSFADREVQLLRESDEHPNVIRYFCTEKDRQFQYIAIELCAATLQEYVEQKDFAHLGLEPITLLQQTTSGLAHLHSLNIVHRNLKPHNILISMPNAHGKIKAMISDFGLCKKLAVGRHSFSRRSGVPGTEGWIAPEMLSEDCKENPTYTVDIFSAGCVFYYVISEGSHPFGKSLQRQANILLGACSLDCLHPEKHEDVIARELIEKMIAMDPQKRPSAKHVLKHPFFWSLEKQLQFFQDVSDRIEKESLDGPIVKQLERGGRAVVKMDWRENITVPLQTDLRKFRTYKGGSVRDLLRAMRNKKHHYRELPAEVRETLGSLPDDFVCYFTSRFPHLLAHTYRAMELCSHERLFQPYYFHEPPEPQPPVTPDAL

For the compound `Cc1cc(-c2ccc(NS(=O)(=O)c3cccnc3C(F)(F)F)c(F)c2)nc2cnc(N[C@H]3CC[C@H](N(C)C)CC3)nc12` [Compound 157, N-[4-[2-[[(1,4-trans)-4-(Dimethylamino)cyclohexyl]amino]-8-methyl-pyrido[3,2-d]pyrimidin-6-yl]-2-fluoro-phenyl]-2-(trifluoromethyl)pyridine-3-sulfonamide], the IC50 (as a rule, the midpoint of a concentration-inhibition curve) turned out to be 0.23 nM.

`Cc1cc(-c2ccc(NS(=O)(=O)Cc3ccccc3)c(F)c2)nc2cnc(N[C@@H]3CNC[C@@H](F)C3)nc12` [Compound 106, N-(2-Fluoro-4-(2-(((3S,5S)-5-fluoropiperidin-3-yl)amino)-8-methylpyrido[3,2-d]pyrimidin-6-yl)phenyl)-1-phenylmethanesulfonamide]: the half-inhibitory concentration (IC50) was found to be 0.3 nM.

With `Cc1cc(-c2ccc(NS(=O)(=O)CCC(C)(F)F)c(F)c2)nc2cnc(N[C@H]3CC[C@H](N(C)C)CC3)nc12` [Compound 113, N-(4-(2-(((1,4-trans)-4-(Dimethylamino)cyclohexyl)amino)-8-methylpyrido[3,2-d]pyrimidin-6-yl)-2-fluorophenyl)-3,3-difluorobutane-1-sulfonamide formate], the IC50 was 0.17 nM.

On to `Cc1cc(-c2ccc(NS(=O)(=O)Cc3ccc(F)cc3F)c(F)c2)nc2cnc(N[C@@H]3CNC[C@@H](F)C3)nc12` [Compound 115, 1-(2,4-Difluorophenyl)-N-(2-fluoro-4-(2-(((3S,5S)-5-fluoropiperidin-3-yl)amino)-8-methylpyrido[3,2-d]pyrimidin-6-yl)phenyl)methanesulfonamide], for which the half-inhibitory concentration (IC50) was determined as 0.26 nM.

Turning to `Cc1cc(-c2ccc(NS(=O)(=O)c3cccnc3)c(F)c2)nc2cnc(N[C@H]3CC[C@H](N(C)C)CC3)nc12` [Compound 154, N-[4-[2-[[(1,4-trans)-4-(Dimethylamino)cyclohexyl]amino]-8-methyl-pyrido[3,2-d]pyrimidin-6-yl]-2-fluoro-phenyl]pyridine-3-sulfonamide], the IC50 was 0.21 nM.

`Cc1cc(-c2cc(F)c(NS(=O)(=O)Cc3ccccc3)c(F)c2)nc2cnc(N[C@@H]3CNC[C@@H](F)C3)nc12` [Compound 108, N-(2,6-Difluoro-4-(2-(((3S,5S)-5-fluoropiperidin-3-yl)amino)-8-methylpyrido[3,2-d]pyrimidin-6-yl)phenyl)-1-phenylmethanesulfonamide]: the IC50 worked out at 0.2 nM.

As to `CC(C)c1cc(-c2ccc(NS(=O)(=O)CCC(F)(F)F)c(F)c2)nc2cnc(N[C@H]3CC[C@H](N(C)C)CC3)nc12` [Compound 124, N-(4-(2-(((1,4-trans)-4-(Dimethylamino)cyclohexyl)amino)-8-isopropylpyrido[3,2-d]pyrimidin-6-yl)-2-fluorophenyl)-3,3,3-trifluoropropane-1-sulfonamide], the IC50 worked out at 0.16 nM.

In the case of `CCc1cc(-c2ccc(NS(=O)(=O)CCC(F)(F)F)c(F)c2)nc2cnc(N[C@H]3CC[C@H](N(C)C)CC3)nc12` [Compound 114, N-(4-(2-(((1,4-trans)-4-(Dimethylamino)cyclohexyl)amino)-8-ethylpyrido[3,2-d]pyrimidin-6-yl)-2-fluorophenyl)-3,3,3-trifluoropropane-1-sulfonamide], the IC50 came out at 0.08 nM.

As for `CN(C)[C@H]1CC[C@H](Nc2ncc3nc(-c4ccc(NS(=O)(=O)CCC(F)(F)F)c(F)c4)cc(C(F)F)c3n2)CC1` [Compound 144, N-[(1,4-trans)-4-[8-(Difluoromethyl)-2-[[4-(dimethylamino)cyclohexyl]amino]pyrido[3,2-d]pyrimidin-6-yl]-2-fluoro-phenyl]-3,3,3-trifluoro-propane-1-sulfonamide], the IC50 was found to be 0.16 nM.

`CN(C)[C@H]1CC[C@H](Nc2ncc3nc(-c4ccc(NS(=O)(=O)Cc5ccc(F)cc5)c(F)c4)cc(CF)c3n2)CC1` [Compound 130, N-[4-[2-[[(1,4-trans)-4-(Dimethylamino)cyclohexyl]amino]-8-(fluoromethyl)pyrido[3,2-d]pyrimidin-6-yl]-2-fluoro-phenyl]-1-(4-fluorophenyl)methanesulfonamide]: the IC50 amounted to 0.2 nM.

As to `O=S(=O)(Cc1ccccc1)Nc1c(F)cc(-c2cc3cnc(N[C@@H]4CNC[C@@H](F)C4)nc3nc2OC2CCOC2)c(F)c1F` (single isomer, unassigned) [Compound 104], the IC50 is 0.66 nM.

`Cc1cc(-c2ccc(NS(=O)(=O)CCC(F)(F)F)c(F)c2)nc2cnc(N[C@@H]3CNC[C@@H](F)C3)nc12` [Compound 110, 3,3,3-Trifluoro-N-(2-fluoro-4-(2-(((3S,5S)-5-fluoropiperidin-3-yl)amino)-8-methylpyrido[3,2-d]pyrimidin-6-yl)phenyl)propane-1-sulfonamide]: the half-maximal inhibitory concentration (IC50) stood at 1.1 nM.

Turning to `COCc1cc(-c2ccc(NS(=O)(=O)Cc3ccc(F)cc3)c(F)c2)nc2cnc(N[C@H]3CC[C@H](N(C)C)CC3)nc12` [Compound 138, N-(4-(2-(((1,4-trans)-4-(Dimethylamino)cyclohexyl)amino)-8-(methoxymethyl)pyrido[3,2-d]pyrimidin-6-yl)-2-fluorophenyl)-1-(4-fluorophenyl)methanesulfonamide], the IC50 turned out to be 0.21 nM.

`CCc1cc(-c2ccc(NS(=O)(=O)c3ccccc3Cl)nc2C)nc2cnc(N[C@H]3CC[C@H](N(C)C)CC3)nc12` [Compound 134, 2-Chloro-N-(5-(2-(((1,4-trans)-4-(dimethylamino)cyclohexyl)amino)-8-ethylpyrido[3,2-d]pyrimidin-6-yl)-6-methylpyridin-2-yl)benzenesulfonamide]: the IC50 came out at 0.33 nM.

For `CC(Oc1nc2nc(N[C@@H]3CNC[C@@H](F)C3)ncc2cc1-c1ccc(NS(=O)(=O)Cc2ccccc2)c(F)c1F)C(F)F` (single isomer, unassigned) [Compound 102], the IC50 is 1.1 nM.

As to `CCC(F)(F)CS(=O)(=O)Nc1ccc(-c2cc(C)c3nc(N[C@H]4CC[C@H](N(C)C)CC4)ncc3n2)cc1F` [Compound 117, N-(4-(2-(((1,4-trans)-4-(Dimethylamino)cyclohexyl)amino)-8-methylpyrido[3,2-d]pyrimidin-6-yl)-2-fluorophenyl)-2,2-difluorobutane-1-sulfonamide formate], the IC50 is 0.11 nM.

With `Cc1cc(-c2ccc(NS(=O)(=O)c3ccccc3C#N)c(F)c2)nc2cnc(N[C@H]3CC[C@H](N(C)C)CC3)nc12` [Compound 150, 2-Cyano-N-[(1,4-trans)-4-[2-[[4-(dimethylamino)cyclohexyl]amino]-8-methyl-pyrido[3,2-d]pyrimidin-6-yl]-2-fluoro-phenyl]benzenesulfonamide], the IC50 was determined as 0.15 nM.

As to `Cc1cc(-c2ccc(NS(=O)(=O)CCC(F)(F)F)c(F)c2)nc2cnc(N[C@H]3CC[C@H](N(C)C)CC3)nc12` [Compound 107, N-(4-(2-(((1r,4r)-4-(Dimethylamino)cyclohexyl)amino)-8-methylpyrido[3,2-d]pyrimidin-6-yl)-2-fluorophenyl)-3,3,3-trifluoropropane-1-sulfonamide], the IC50 amounted to 0.2 nM.

In the case of `CCc1cc(-c2ccc(NS(=O)(=O)Cc3ccccc3)c(F)c2)nc2cnc(N[C@@H]3CNC[C@@H](F)C3)nc12` [Compound 122, N-(4-(8-Ethyl-2-(((3S,5S)-5-fluoropiperidin-3-yl)amino)pyrido[3,2-d]pyrimidin-6-yl)-2-fluorophenyl)-1-phenylmethanesulfonamide formate], the IC50 stood at 0.2 nM.
